Measurements published in US20100298141A1, “SUBSTITUTED PYRIDINE N-OXIDE HERBICIDES” (E. I. DU PONT DE NEMOURS AND COMPANY, priority 2007, published 2010).

What was measured:
[1] = tested on: Russian thistle; test: Test C pre-/postemergence test; type: in vivo, Salsola kali; conditions: Preemergence
In short: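 Test chemicals were formulated with surfactant in a non-phytotoxic solvent and sprayed both on freshly planted seeds (preemergence) and on 1- to 4-leaf plants of 2–18 cm (postemergence). Flooded-paddy pots received compound directly into 3 cm of standing water, maintained for the test.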

[2] = tested on: bermudagrass; test: Test F preemergence test; type: in vivo, Cynodon dactylon; conditions: scale 0 to 100
In short: (§1)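 Test chemicals in a non-phytotoxic solvent mixture containing a surfactant were applied preemergence to sown seeds or postemergence to sugarcane plants. Treated plants and controls were held in a greenhouse for 14 to 21 days, then visually evaluated against controls.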

[3] = tested on: Surinam grass; test: Test F preemergence test; type: in vivo, Brachiaria decumbens; conditions: scale 0 to 100
In short: as §1

[4] = tested on: large crabgrass; test: Test F preemergence test; type: in vivo, Digitaria sanguinalis; conditions: scale 0 to 100
In short: as §1

[5] = tested on: goosegrass; test: Test F preemergence test; type: in vivo, Eleusine indica; conditions: scale 0 to 100
In short: as §1

[6] = tested on: johnsongrass; test: Test F preemergence test; type: in vivo, Sorghum halepense; conditions: scale 0 to 100
In short: as §1

[7] = tested on: kochia; test: Test F preemergence test; type: in vivo, Kochia scoparia; conditions: scale 0 to 100
In short: as §1

[8] = tested on: pitted morningglory; test: Test F preemergence test; type: in vivo, Ipomoea lacunosa; conditions: scale 0 to 100
In short: as §1

[9] = tested on: purple nutsedge; test: Test F preemergence test; type: in vivo, Cyperus rotundus; conditions: scale 0 to 100
In short: as §1

[10] = tested on: common ragweed; test: Test F preemergence test; type: in vivo, Ambrosia elation; conditions: scale 0 to 100
In short: as §1

[11] = tested on: guineagrass; test: Test F preemergence test; type: in vivo, Panicum maximum; conditions: scale 0 to 100
In short: as §1

[12] = tested on: southern sandbur; test: Test F preemergence test; type: in vivo, Cenchrus echinatus; conditions: scale 0 to 100
In short: as §1

[13] = tested on: prickly sida; test: Test F preemergence test; type: in vivo, Sida spinosa; conditions: scale 0 to 100
In short: as §1

[14] = tested on: Italian ryegrass; test: Test F preemergence test; type: in vivo, Lolium multiflorum; conditions: scale 0 to 100
In short: as §1

[15] = tested on: common purslane; test: Test F preemergence test; type: in vivo, Portulaca oleracea; conditions: scale 0 to 100
In short: as §1

[16] = tested on: common groundsel; test: Test F preemergence test; type: in vivo, Senecio vulgaris; conditions: scale 0 to 100
In short: as §1

[17] = tested on: naked crabgrass; test: Test F preemergence test; type: in vivo, Digitaria nuda; conditions: scale 0 to 100
In short: as §1

[18] = tested on: quackgrass; test: Test F preemergence test; type: in vivo, Elytrigia repens; conditions: scale 0 to 100
In short: as §1

Cc1cc[n+]([O-])c([S+]([O-])Cc2c(C(F)(F)F)nn(C)c2Cl)c1 (racemic) [Compound 20]
Russian Thistle plant response rating ([1]; 62 g ai/ha, scale 0 to 100): 100
Plant response rating, Russian Thistle ([1]; 31 g ai/ha, scale 0 to 100 (0 no effect, 100 complete control)): 100
Plant response rating, Bermudagrass ([2]; 8 g ai/ha, preemergence): 15
Bermudagrass plant response rating ([2]; 62 g ai/ha, Preemergence): 50
Plant response rating, Bermudagrass ([2]; Preemergence, 16 g ai/ha): 20
Plant response rating, Bermudagrass ([2]; Preemergence, 31 g ai/ha): 50
Plant response rating, Surinam Grass ([3]; 8 g ai/ha, preemergence): 0
Plant response rating, Surinam Grass ([3]; 16 g ai/ha, preemergence): 0
Surinam Grass plant response rating ([3]; 62 g ai/ha, Preemergence): 65
Plant response rating, Surinam Grass ([3]; Preemergence, 31 g ai/ha): 60
Plant response rating, Crabgrass, Large ([4]; 8 g ai/ha, preemergence): 0
Crabgrass, Large plant response rating ([4]; 62 g ai/ha, Preemergence): 80
Plant response rating, Crabgrass, Large ([4]; Preemergence, 16 g ai/ha): 10
Plant response rating, Crabgrass, Large ([4]; Preemergence, 31 g ai/ha): 70
Plant response rating, Goosegrass ([5]; 8 g ai/ha, preemergence): 0
Goosegrass plant response rating ([5]; 62 g ai/ha, Preemergence): 75
Plant response rating, Goosegrass ([5]; Preemergence, 16 g ai/ha): 15
Plant response rating, Goosegrass ([5]; Preemergence, 31 g ai/ha): 60
Plant response rating, Johnsongrass ([6]; 8 g ai/ha, preemergence): 0
Johnsongrass plant response rating ([6]; 62 g ai/ha, Preemergence): 90
Plant response rating, Johnsongrass ([6]; Preemergence, 16 g ai/ha): 50
Plant response rating, Johnsongrass ([6]; Preemergence, 31 g ai/ha): 60
Plant response rating, Kochia ([7]; 8 g ai/ha, preemergence): 0
Kochia plant response rating ([7]; 62 g ai/ha, Preemergence): 50
Plant response rating, Kochia ([7]; Preemergence, 16 g ai/ha): 0
Plant response rating, Kochia ([7]; Preemergence, 31 g ai/ha): 0
Plant response rating, Morningglory ([8]; 8 g ai/ha, preemergence): 0
Morningglory plant response rating ([8]; 62 g ai/ha, Preemergence): 40
Plant response rating, Morningglory ([8]; Preemergence, 16 g ai/ha): 0
Plant response rating, Morningglory ([8]; Preemergence, 31 g ai/ha): 15
Plant response rating, Purple Nutsedge ([9]; 8 g ai/ha, preemergence): 0
Purple Nutsedge plant response rating ([9]; 62 g ai/ha, Preemergence): 25
Plant response rating, Purple Nutsedge ([9]; Preemergence, 16 g ai/ha): 0
Plant response rating, Purple Nutsedge ([9]; Preemergence, 31 g ai/ha): 0
Plant response rating, Ragweed ([10]; 8 g ai/ha, preemergence): 0
Ragweed plant response rating ([10]; 62 g ai/ha, Preemergence): 25
Plant response rating, Ragweed ([10]; Preemergence, 16 g ai/ha): 0
Plant response rating, Ragweed ([10]; Preemergence, 31 g ai/ha): 0
Plant response rating, Guineagrass ([11]; 8 g ai/ha, preemergence): 0
Guineagrass plant response rating ([11]; 62 g ai/ha, Preemergence): 95
Plant response rating, Guineagrass ([11]; Preemergence, 16 g ai/ha): 0
Plant response rating, Guineagrass ([11]; Preemergence, 31 g ai/ha): 90
Plant response rating, Sandbur ([12]; 8 g ai/ha, preemergence): 0
Plant response rating, Sandbur ([12]; 16 g ai/ha, preemergence): 0
Sandbur plant response rating ([12]; 62 g ai/ha, Preemergence): 75
Plant response rating, Sandbur ([12]; Preemergence, 31 g ai/ha): 60
Plant response rating, Prickly Sida ([13]; 8 g ai/ha, preemergence): 0
Prickly Sida plant response rating ([13]; 62 g ai/ha, Preemergence): 60
Plant response rating, Prickly Sida ([13]; Preemergence, 16 g ai/ha): 0
Plant response rating, Prickly Sida ([13]; Preemergence, 31 g ai/ha): 20
Plant response rating, Ryegrass, Italian ([14]; 8 g ai/ha, preemergence): 0
Ryegrass, Italian plant response rating ([14]; 62 g ai/ha, Preemergence): 65
Plant response rating, Ryegrass, Italian ([14]; Preemergence, 16 g ai/ha): 10
Plant response rating, Ryegrass, Italian ([14]; Preemergence, 31 g ai/ha): 35
Plant response rating, Purslane ([15]; 8 g ai/ha, preemergence): 0
Purslane plant response rating ([15]; 62 g ai/ha, Preemergence): 25
Plant response rating, Purslane ([15]; Preemergence, 16 g ai/ha): 15
Plant response rating, Purslane ([15]; Preemergence, 31 g ai/ha): 15
Plant response rating, Groundsel ([16]; 8 g ai/ha, preemergence): 0
Groundsel plant response rating ([16]; 62 g ai/ha, Preemergence): 0
Plant response rating, Groundsel ([16]; Preemergence, 16 g ai/ha): 0
Plant response rating, Groundsel ([16]; Preemergence, 31 g ai/ha): 0
Plant response rating, Crabgrass, Naked ([17]; 8 g ai/ha, preemergence): 75
Crabgrass, Naked plant response rating ([17]; 62 g ai/ha, Preemergence): 95
Plant response rating, Crabgrass, Naked ([17]; Preemergence, 16 g ai/ha): 75
Plant response rating, Crabgrass, Naked ([17]; Preemergence, 31 g ai/ha): 80
Plant response rating, Quackgrass ([18]; 8 g ai/ha, preemergence): 0
Quackgrass plant response rating ([18]; 62 g ai/ha, Preemergence): 60
Plant response rating, Quackgrass ([18]; Preemergence, 16 g ai/ha): 0
Plant response rating, Quackgrass ([18]; Preemergence, 31 g ai/ha): 0
